According to patent US7713994B2 (Wyeth LLC, priority 2005, dated 2010):
Read-outs that look alike come from different tables or passages of the source.

Tests used:
LoVo = test: Cytotoxicity assay (SRB), LoVo; format: cell-based; details: Homo sapiens, LoVo, 72 h, read-out: In Vitro Cellular Activity IC50 LOVO
How it was run: (§1)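 Protein staining with sulforhodamine B after cold TCA fixation served as the survival endpoint (A540, relative to untreated cells). Before staining, cells were incubated with compound at 37 °C, 7% CO2 for 3 days, or 6 days for BT474.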

HCT-116 = test: Cytotoxicity assay (SRB), HCT-116; format: cell-based; details: Homo sapiens, HCT-116, 72 h, read-out: In Vitro Cellular Activity IC50 HCT116
How it was run: as §1

BT474 = test: Cytotoxicity assay (SRB), BT474; format: cell-based; details: Homo sapiens, BT-474, 144 h, read-out: In Vitro Cellular Activity IC50 BT474
How it was run: as §1

cyclin E/CDK2 enzyme = biological target: T1, cyclin E/CDK2 enzyme (Homo sapiens, UniProt P24941); test: CDK2 ELISA kinase assay (phospho-Rb ser 795 detection); format: biochemical; details: In Vitro Enzyme Assays, read-out: CDK2 IC50
T1 construct: made in house; host or cells: Sf9 insect cells, recombinant baculovirus
How it was run: (§2)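 GST-Rb C-terminal fragment coated on wells; kinase reaction: 200 μM ATP, 0.5 mg/ml BSA, HEPES pH 7.5, 10 mM MgCl2, baculovirus/Sf9 cyclin-CDK, 30° C, 1 h. Readout anti-phospho-Rb Ser795, HRP, TMB, A450. Test compound 10 ug/ml final.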

MCF-7 = test: Cytotoxicity assay (SRB), MCF-7; format: cell-based; details: Homo sapiens, MCF7, 72 h, read-out: In Vitro Cellular Activity IC50 MCF-7
How it was run: as §1

cyclin D1/cdk 4 enzyme = biological target: T2, cyclin D1/cdk 4 enzyme (Homo sapiens, UniProt P11802); test: CDK4 ELISA kinase assay (phospho-Rb ser 795 detection); format: biochemical; details: In Vitro Enzyme Assays, 200 μM ATP, read-out: CDK4 IC50
T2 construct: made in house; host or cells: Sf9 insect cells, recombinant baculovirus
How it was run: as §2

cyclin B/CDK1 enzyme = biological target: T3, cyclin B/CDK1 enzyme (Homo sapiens, UniProt P06493); test: CDK1 ELISA kinase assay (phospho-Rb ser 795 detection); format: biochemical; details: In Vitro Enzyme Assays, read-out: CDK1 IC50
T3 construct: purchased New England BioLabs; host or cells: Sf9 insect cells, recombinant baculovirus
How it was run: as §2

T3 sequence (P06493 whole entry): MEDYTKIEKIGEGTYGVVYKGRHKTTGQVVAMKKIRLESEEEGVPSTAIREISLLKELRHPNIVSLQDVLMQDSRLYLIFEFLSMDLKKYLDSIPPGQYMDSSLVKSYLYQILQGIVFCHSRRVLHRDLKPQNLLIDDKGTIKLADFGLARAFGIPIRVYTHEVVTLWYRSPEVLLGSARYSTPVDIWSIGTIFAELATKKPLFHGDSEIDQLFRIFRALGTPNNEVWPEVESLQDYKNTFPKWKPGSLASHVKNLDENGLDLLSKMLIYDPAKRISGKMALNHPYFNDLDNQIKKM
T3 sequence (P14635 whole entry partner): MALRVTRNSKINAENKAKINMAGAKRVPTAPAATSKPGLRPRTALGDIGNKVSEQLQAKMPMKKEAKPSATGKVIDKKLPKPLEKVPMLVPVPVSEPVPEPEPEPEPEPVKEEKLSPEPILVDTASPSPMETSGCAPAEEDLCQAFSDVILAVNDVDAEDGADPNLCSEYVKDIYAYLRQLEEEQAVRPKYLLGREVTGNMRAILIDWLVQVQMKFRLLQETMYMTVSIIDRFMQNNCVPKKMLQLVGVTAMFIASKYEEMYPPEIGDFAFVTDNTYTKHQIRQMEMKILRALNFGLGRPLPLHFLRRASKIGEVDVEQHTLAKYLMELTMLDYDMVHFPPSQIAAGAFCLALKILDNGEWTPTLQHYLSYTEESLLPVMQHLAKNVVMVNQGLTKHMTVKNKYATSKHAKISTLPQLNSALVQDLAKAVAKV
T2 sequence (P11802 whole entry, species assumed): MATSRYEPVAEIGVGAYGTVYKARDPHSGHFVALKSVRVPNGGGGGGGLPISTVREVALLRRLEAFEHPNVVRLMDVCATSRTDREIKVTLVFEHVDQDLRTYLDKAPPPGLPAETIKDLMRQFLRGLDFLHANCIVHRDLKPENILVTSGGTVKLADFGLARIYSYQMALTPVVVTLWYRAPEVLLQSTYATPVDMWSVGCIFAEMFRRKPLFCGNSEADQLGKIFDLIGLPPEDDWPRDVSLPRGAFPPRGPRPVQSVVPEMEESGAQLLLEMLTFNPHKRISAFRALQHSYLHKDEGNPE
T2 sequence (P24385 whole entry partner, species assumed): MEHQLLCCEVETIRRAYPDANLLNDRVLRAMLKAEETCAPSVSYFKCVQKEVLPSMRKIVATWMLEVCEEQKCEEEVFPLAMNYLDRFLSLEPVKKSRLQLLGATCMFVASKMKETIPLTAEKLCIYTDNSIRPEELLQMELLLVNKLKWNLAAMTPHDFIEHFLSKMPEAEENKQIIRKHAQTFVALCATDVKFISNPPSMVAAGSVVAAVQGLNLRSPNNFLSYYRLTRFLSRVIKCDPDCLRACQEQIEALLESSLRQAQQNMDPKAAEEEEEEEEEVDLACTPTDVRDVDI

| Structure (SMILES) | melting point | IC50 (cyclin E/CDK2 enzyme) [µM] | IC50 (cyclin D1/cdk 4 enzyme) [nM] | IC50 (cyclin B/CDK1 enzyme) [µM] | IC50 (LoVo; LoVo cells, SRB, three days) [µM] | IC50 (HCT-116; HCT116 cells, SRB, three days) [µM] | IC50 (BT474; BT474 cells, SRB, 6 days) [µM] | IC50 (MCF-7; MCF-7 cells, SRB, three days) [µM] | IC50 (LoVo) [µM] | IC50 (HCT-116) [µM] | IC50 (BT474) [µM] | IC50 (MCF-7) [µM] |
| --- | --- | --- | --- | --- | --- | --- | --- | --- | --- | --- | --- | --- |
| COCCOc1ccc(CN/C=C2\C(=O)NC(=O)c3ccc(Br)cc32)cc1O [Example 158] | 179 to 180 °C | > 50 | 40 | > 50 | 30 | 32 | 28 | > 50 |  |  |  |  |
| O=C1NC(=O)c2ccc(I)cc2/C1=C/NCc1ccc(Cl)c(O)c1 [Example 165, (4Z)-4-{[(4-Chloro-3-hydroxybenzyl)amino]methylene}-6-iodoisoquinoline-′1,3(2H,4H)-dione] | 324 to 325 °C | 18.9 | 200 | > 50 | > 50 | 23 | > 50 | > 50 |  |  |  |  |
| COc1ccc(C#Cc2ccc3c(c2)/C(=C/Nc2ccc(N4CCN(C)CC4)cc2)C(=O)NC3=O)cc1 [Example 172, (4Z)-6-[(4-Methoxyphenyl)ethynyl]-4-({[4-(4-methylpiperazin-1-yl)phenyl]amino}-methylene)isoquinoline-1,3(2H,4H)-dione] | 155 to 156 °C | > 50 | 23600 | 23.6 | > 50 | 8.7 | 17 | > 50 |  |  |  |  |
| O=C1NC(=O)c2ccc(Br)cc2/C1=C/NCc1ccc(OC(F)F)c(O)c1 [Example 180] | 256 to 258 °C | > 50 | 70 | > 50 | 6.2 | 5.9 | 5.1 | 15 |  |  |  |  |
| CN1CCN(c2ccc(N/C=C3\C(=O)NC(=O)c4ccc(-c5ccc(-c6cccs6)s5)cc43)cc2)CC1 [Example 182, (4Z)-6-(2,2′-Bithien-5-yl)-4-({[4-(4-methylpiperazin-1-yl)phenyl]amino}methylene)-isoquinoline-1,3(2H,4H)-dione] | 204 to 205 °C | > 50 | 2300 | 2.3 |  |  |  |  | > 50 | > 50 | 17 | > 50 |
| COC(=O)Nc1ccc(CN/C=C2\C(=O)NC(=O)c3ccc(Br)cc32)cc1OC(=O)OC [Example 184, 5-({[(Z)-(6-Bromo-1,3-dioxo-2,3-dihydroisoquinolin-4(1H)-′ylidene)methyl]amino}methyl)-2-[(methoxycarbonyl)amino]phenyl methyl carbonate] | 179 to 180 °C | 41.5 | 6000 | > 50 | 20 | 13 | 8.5 | 50 |  |  |  |  |
| CN1CCN(c2ccc(N/C=C3\C(=O)NC(=O)c4ccc(C#Cc5ccsc5)cc43)cc2)CC1 [Example 187, (4Z)-4-({[4-(4-Methylpiperazin-1-yl)phenyl]amino}methylene)-6-(thien-3-ylethynyl)-isoquinoline-1,3(2H,4H)-dione] | 193 to 194 °C | 3.3 | 2300 | 1.7 | 8.5 | 1.1 | 2.9 | 3 |  |  |  |  |
| CCCOc1ccc(CN/C=C2\C(=O)NC(=O)c3ccc(-c4ccc(F)cc4)cc32)cc1O [Example 192, (4Z)-6-(4-Fluorophenyl)-4-{[(3-hydroxy-4-propoxybenzyl)amino]methylene}-isoquinoline-1,3(2H,4H)-dione] | 194 to 195 °C | > 50 | 40 | > 50 | 40 | 6.8 | 16 | 2.4 |  |  |  |  |
| COc1ccc(CN/C=C2\C(=O)NC(=O)c3ccc(NS(=O)(=O)c4ccccc4)cc32)cc1O [Example 196, N-((4Z)-4-{[(3-Hydroxy-4-methoxybenzyl)amino]methylene}-1,3-dioxo-1,2,3,4-′tetrahydroisoquinolin-6-yl)benzenesulfonamide] | 245 to 246 °C | 40.6 | 1100 | > 50 | 37 | 35 | 37 | 38 |  |  |  |  |
| CC1CN(c2ccc(N/C=C3\C(=O)NC(=O)c4ccc(Br)cc43)cc2)CC(C)N1 (stereo not drawn) [Example 201] | 229 to 230 °C | > 50 | 4100 | > 50 | 1.4 | 1.1 | 1.4 | 1.7 |  |  |  |  |

More lines, main results first:

| melting point | IC50 (cyclin E/CDK2 enzyme) [µM] | IC50 (cyclin D1/cdk 4 enzyme) [nM] | IC50 (cyclin B/CDK1 enzyme) [µM] | Structure (SMILES) | IC50 (LoVo; LoVo cells, SRB, three days) [µM] | IC50 (HCT-116; HCT116 cells, SRB, three days) [µM] | IC50 (BT474; BT474 cells, SRB, 6 days) [µM] | IC50 (MCF-7; MCF-7 cells, SRB, three days) [µM] | IC50 (LoVo) [µM] | IC50 (HCT-116) [µM] | IC50 (BT474) [µM] | IC50 (MCF-7) [µM] |
| --- | --- | --- | --- | --- | --- | --- | --- | --- | --- | --- | --- | --- |
| 223 to 225 °C (dec.) | > 50 | 40 | > 50 | O=C1NC(=O)c2ccc(-c3ccoc3)cc2C1=NNc1ccc(CN2CCCCC2)cc1 [Example 156, 6-Furan-3-yl-4-[(4-piperidin-1-ylmethyl-phenyl)-hydrazono]-4H-isoquinoline-1,3-dione] | 6.4 | 2.5 | 2.6 | 1.5 |  |  |  |  |
| 177 to 179 °C (dec.) | 31 | 20400 | > 50 | COc1ccc(CNC=C2C(=O)NCc3ccccc32)cc1O [Example 160, 4-[(3-Hydroxy-4-methoxy-benzylamino)-methylene]-1,4-dihydro-2H-isoquinoline-3-one] | 43 | > 50 | > 50 | 30 |  |  |  |  |
| 188 to 189 °C (dec.) | > 50 | 18600 | > 50 | O=C1NCc2ccccc2C1=CNc1ccc(CN2CCCCC2)cc1 [Example 162, 4-[(4-Piperidin-1-ylmethyl-phenylamino)-methylene]-1,4-dihydro-2H-isoquinolin-3-one] | 9.2 | 4.4 | 23 | 3.9 |  |  |  |  |
| 169 to 173 °C (dec.) | > 50 | 46500 | > 50 | O=C1NCc2ccccc2C1=CNc1ccc(CCN2CCCC2)cc1 [Example 170, 4-{[4-(2-Pyrrolidin-1-yl-ethyl)-phenylamino]-methylene}-1,4-dihydro-2H-isoquinolin-3-one] | 21 | 6.2 | 27 | 11 |  |  |  |  |
| 169 to 170 °C | > 50 | 2300 | 33.2 | CN1CCN(c2ccc(N/C=C3\C(=O)NC(=O)c4ccc(C#Cc5ccccc5)cc43)cc2)CC1 [Example 171, (4Z)-4-({[4-(4-Methylpiperazin-1-yl)phenyl]amino}methylene)-6-(phenylethynyl)-isoquinoline-1,3(2H,4H)-dione] | 9.7 | 1.2 | 5.1 | 3 |  |  |  |  |
| 212 to 214 °C (dec.) | > 50 | 1300 | > 50 | O=C1NC(=O)c2ccc(Br)cc2/C1=C/Nc1ccc(CCN2CCCC2)cc1 [Example 176, 6-Bromo-4-{[4-(2-pyrrolidin-1-yl-ethyl)-phenylamino]-methylene}-4H-isoquinolin-1,3-dione] | 4.5 | 3.4 | 7.2 | 3.8 |  |  |  |  |
| 209 to 210 °C | > 50 | 1100 | > 50 | COCC#Cc1ccc2c(c1)/C(=C/Nc1ccc(N3CCN(C)CC3)cc1)C(=O)NC2=O [Example 177, (4Z)-6-(3-Methoxyprop-1-ynyl)-4-({[4-(4-methylpiperazin-1-yl)phenyl]amino}-methylene)isoquinoline-1,3(2H,4H)-dione] | 3.9 | 3.1 | 3.9 | 4.1 |  |  |  |  |
| 289 to 290 °C | 39.7 | 33200 | 24.2 | CN1CCN(c2ccc(N/C=C3\C(=O)NC(=O)c4ccc(NS(=O)(=O)c5ccccc5)cc43)cc2)CC1 [Example 188, 1,2,3,4-Tetrahydroisoquinolin-6-yl]benzenesulfonamide′N-[(4Z)-4-({[4-(4-methylpiperazin-1-yl)phenyl]amino}methylene)-1,3-dioxo] | 11 | 2.2 | 3.3 | 12 |  |  |  |  |
